Test results as given in ChEMBL document CHEMBL4118148, “Design, synthesis and cardiovascular evaluation of some aminoisopropanoloxy derivatives of xanthone” (Bioorg Med Chem, 2018).

Experiments:
Rattus norvegicus [1] = experiment: Hypotensive activity in normotensive Wistar rat assessed as reduction in systolic blood pressure at 1 mg/kg, iv measured over 40th min relative to control; type: functional; design: scale not given: the % may be the effect or the level left
Rattus norvegicus [2] = experiment: Hypotensive activity in normotensive Wistar rat assessed as systolic blood pressure at 2.5 mg/kg, iv measured after 10 mins (reference value: 148.5 +/- 2.6 mmHg); type: functional
Rattus norvegicus [3] = experiment: Cardiotoxicity in Wistar rat assessed as effect on QRS interval time at 1 mg/kg, iv measured after 5 mins (reference value: 19.4 +/- 0.9 ms); type: toxicity, organism-based; conditions: in vivo
Rattus norvegicus [4] = experiment: Cardiotoxicity in Wistar rat assessed as effect on heart rate at 1 mg/kg, iv measured after 1 min (reference value: 320.6 +/- 8.1 bpm); type: toxicity, organism-based; conditions: in vivo

Compound: Cl.O=c1c2ccccc2oc2cc(OCC(O)CN3CCN(c4ccccn4)CC3)ccc12 (racemic)
- Activity (Rattus norvegicus [1]): 8 - 10%

Compound: COc1ccc(CCNCC(O)COc2cccc3c(=O)c4ccccc4oc23)cc1OC.Cl (racemic)
- Activity (Rattus norvegicus [2]): 135 mmHg

Compound: CC(C)(C)NCC(O)COc1cccc2c(=O)c3ccccc3oc12.Cl (racemic)
- Time (Rattus norvegicus [3]): 19 ms
- Activity (Rattus norvegicus [4]): 307.2 bpm
